In PubChem BioAssay (NCI) one finds GI50 and TGI data, which are given here for eleven compounds.

SMILES strings stand for the structures. Values joined by “and” are separate entries in the source; they are usually repeats but may differ in a detail not shown here. Identical values can stand only once.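 Tested at 5 concentrations; 48 h exposure; 96-well plates; endpoints linearly interpolated, else capped at highest concentration. GI50: concentration for 50% inhibition of growth. TGI denotes the concentration required for complete inhibition of growth.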

Holding throughout (test): NCI tumour cell line growth inhibition, 48 h
The test system of assay [1] is MCF7 breast.
The test system of assay [2] is HOP-62 NSCLC.
The test system of assay [3] is KM12 colon.
Assay [4] deals with HL-60(TB) leukemia.
The subject of assay [5] is 786-0 renal.
The subject of assay [6] is T-47D breast.
The test system of assay [7] is NCI-H226 lung.
For assay [8], the system named is SN12C renal.
The subject of assay [9] is NCI-H23 lung.
Assay [10] has as its system TK-10 renal.

Turning to `COc1ccc(N(C)c2nc(N)nc3sc4c(c23)CCCC4)cc1`, the GI50 in [1] is less than 0.01 µM; in assay [2], 0.275 µM; in [3] it was less than 0.01 µM; in [4] it was less than 0.01 µM; in [5] it was less than 0.01 µM; in [6], less than 0.01 µM. Moreover, the GI50 is 0.616 µM in [7], less than 0.01 µM in [8], less than 0.01 µM in assay [9] and less than 0.0278 µM in assay [10]. In addition, the TGI in assay [1] was 14.8 µM; in [2], 18.8 µM; in [3] it was 12 µM; in assay [4], 0.0101 µM; in [5], 13.2 µM; in [6], 30.8 µM. Also, the TGI in assay [7] was 22.3 µM; in [8] it was 14 µM; in assay [9], 20.8 µM; in assay [10] it was 22 µM.
Take `COc1ccc(N=N/C(C(=O)C(F)(F)F)=C(\O)c2ccc(Cl)cc2)cc1`: the GI50 is 4.11 µM in assay [1]; 15.5 µM in assay [2]; 2.61 µM in assay [3]; 7.11 µM in [4]; 6.63 µM in assay [5]; 5.98 µM in [6]. Also, the GI50 in assay [7] is 21.2 µM; in assay [8], 16.6 µM; in assay [9] it was 11 µM; in assay [10], 18.3 µM. The TGI was 37.6 µM in [1]; 63.4 µM in assay [2]; 38.7 µM in assay [3]; 39.4 µM in assay [4]; 83.6 µM in assay [5]; 64.9 µM in assay [6]. Also, the TGI in assay [7] is more than 100 µM; in assay [8], more than 100 µM; in [9] it was 54.4 µM; in assay [10], 61.4 µM.
In the case of `CO[C@H]1C[C@@H]2CC[C@@H](C)[C@@](O)(O2)C(=O)C(=O)N2CCCC[C@H]2C(=O)O[C@H]([C@H](C)C[C@@H]2CC[C@@H](OCCO)[C@H](OC)C2)CC(=O)[C@H](C)C=C(C)[C@@H](O)[C@@H](OC)C(=O)[C@H](C)C[C@H](C)/C=C/C=C/C=C1C`, the GI50 was less than 0.01 µM in [1]; less than 0.01 µM in [2]; 1.18 µM in assay [3]; 8.63 µM in [4]; less than 0.01 µM in assay [5]; less than 0.01 µM in assay [6]. The GI50 in assay [8] is 1.82 µM; in assay [10] it was less than 0.01 µM. Besides, the TGI was 14 µM in assay [1]; 19.2 µM in assay [2]; 21.2 µM in assay [3]; 38.4 µM in assay [4]; 20.7 µM in assay [5]; 21.5 µM in [6]. In addition, the TGI in [7] stood at 23.5 µM; in assay [8], 31.1 µM; in assay [9] it was 22.7 µM; in [10], 19.1 µM.
As for `C=CCOCn1cc(C)c(=O)[nH]c1=O`, the TGI in assay [1], in [2], in [3], in assay [4], in assay [5] and in [6] was more than 100 µM throughout. In addition, the TGI in assay [7], in [8], in assay [9] and in assay [10] was more than 100 µM throughout.
Turning to `CCCCCCCCCCCC[n+]1ccc2ccccc2c1`, the GI50 is 0.937 µM in [1]; 1.48 µM in [2]; 0.397 µM in assay [3]; 0.267 µM in assay [4]; 1.49 µM in [5]; 0.406 µM in [6]. In addition, the GI50 in assay [7] is 1.1 µM; in [8], 1.17 µM; in assay [9], 0.646 µM; in assay [10] it was 1.17 µM. Also, the TGI in assay [1] turned out to be 2.88 µM; in [2], 3.01 µM; in [3], 1.51 µM; in assay [4], 0.954 µM; in [5], 2.93 µM; in [6], 5.26 µM. The TGI stood at 3.85 µM in assay [7], 2.65 µM in [8], 3.09 µM in assay [9] and 2.57 µM in assay [10].
As to `CCN(CC)Cc1cc2[nH]c3c4ccc(Cl)cc4ncc3c2cc1OC`, the GI50 was 2.17 µM and 1.61 µM in [1]; 5.41 µM and 2.01 µM in assay [2]; 2.18 µM and 1.72 µM in assay [3]; 5.13 µM and 2.24 µM in [4]; 2.2 µM and 2.59 µM in [5]; 16.5 µM and 17.4 µM in assay [6]. For the same compound, the GI50 is 14.4 µM and 15.1 µM in [7]; 10.8 µM and 13.7 µM in assay [8]; 6.07 µM and 3.33 µM in assay [9]; 5.4 µM and 2.62 µM in assay [10]. Besides, the TGI in assay [1] is 8.37 µM and 3.29 µM; in assay [2] it was 11.7 µM and 9.34 µM; in [3] it was 7.09 µM and 4.37 µM; in [5] it was 4.82 µM and 5.61 µM; in assay [6], 31.7 µM and 33.6 µM; in assay [7], 28.8 µM and 28.5 µM. Also, the TGI in [8] is 22.7 µM and 26.7 µM; in assay [9], 20.3 µM and 14.4 µM; in assay [10] it was 11.2 µM and 5.62 µM.
For `COc1nnc2ccc(N3CCC(c4ccc(OCCN5CCN(C)C(=O)[C@H]5C)cc4)CC3)nn12`, the GI50 is 0.0234 µM in assay [1]; 0.0875 µM in assay [2]; 0.322 µM in assay [3]; 0.0309 µM in assay [4]; 0.186 µM in assay [5]; 0.0618 µM in assay [6]. Also, the GI50 in [7] was 2.3 µM; in assay [8], 0.606 µM; in assay [9], 0.356 µM; in [10], 0.0555 µM. Also, the TGI was more than 100 µM in [1]; more than 100 µM in [2]; more than 100 µM in assay [3]; more than 100 µM in assay [4]; more than 100 µM in [5]; more than 69.2 µM in assay [6]. Also, the TGI in assay [7] was more than 67.7 µM; in [8], more than 100 µM; in assay [9], more than 100 µM; in assay [10], more than 70.2 µM.
Take `C#CCOc1ccc2ncnc(Nc3ccc(NC(=O)C=C)cc3)c2c1`: the GI50 in assay [1] is 2.98 µM; in assay [2] it was more than 100 µM; in assay [3] it was 34.6 µM; in assay [4] it was 4.97 µM; in assay [5], 11.9 µM; in assay [6], 3.53 µM. In addition, the GI50 in assay [7] is more than 100 µM; in [8] it was 44 µM; in [9], more than 100 µM; in assay [10], 2.62 µM. In addition, the TGI was more than 100 µM in assay [1]; more than 100 µM in assay [2]; more than 100 µM in assay [3]; 32.5 µM in assay [4]; 38.2 µM in [5]; more than 100 µM in assay [6]. Moreover, the TGI in assay [7] is more than 100 µM; in [8], more than 100 µM; in assay [9] it was more than 100 µM; in [10] it was 9.03 µM.
Regarding `CCC(=O)c1c(C(F)(F)F)n([O-])c2cc(F)c(F)cc2[n+]1=O`, the GI50 in assay [1] was 0.623 µM; in assay [2], 1.44 µM; in [3], 1.51 µM; in [4], 0.638 µM; in [5] it was 1.33 µM; in assay [6] it was 0.57 µM. Moreover, the GI50 in [7] was 0.502 µM; in assay [8], 0.649 µM; in assay [9], 0.807 µM; in assay [10], 1.05 µM. The TGI was 2.81 µM in assay [2]; 3.13 µM in assay [3]; 6.55 µM in assay [4]; 2.71 µM in assay [5]; 7.04 µM in [6]; 0.991 µM in assay [7]. The TGI in assay [8] came out at 2.07 µM; in [9] it was 2.24 µM; in assay [10], 2.39 µM.
For the compound `Cn1ncc(Cl)c1-c1cc(C(=O)N[C@H](CN)Cc2ccc(F)c(F)c2)oc1Cl`, the GI50 was 0.257 µM and 0.139 µM in [1]; 2.14 µM and 2.7 µM in [2]; 0.59 µM and 0.255 µM in assay [3]; 2.9 µM and 2.05 µM in [4]; 0.0371 µM and 0.0295 µM in assay [5]; 0.0193 µM and 0.0245 µM in [6]. In addition, the GI50 in assay [7] was 5.91 µM and 2.29 µM; in assay [8] it was 3.48 µM and 1.69 µM; in assay [9], 5.17 µM and 2.44 µM; in [10], 0.961 µM and 0.203 µM. Also, the TGI in assay [1] was 9.66 µM and 2.89 µM; in [2] it was 14 µM and > 10 µM; in assay [3], 6.73 µM and 4.43 µM; in assay [4], 9.62 µM and 6.76 µM; in [5], 3.79 µM and 2.1 µM; in assay [7] it was 24.7 µM and > 10 µM. Moreover, the TGI in assay [8] was 17.4 µM and > 10 µM; in assay [9], 19.7 µM and > 10 µM; in [10], 8.74 µM and 3.92 µM.
As to `O=C1/C=C/[C@@H](O)[C@@H]2C[C@@H](O)C[C@H]2/C=C/CCC[C@H](C(F)(F)F)O1`, the GI50 is 0.0896 µM in assay [1]; 2.14 µM in [2]; 1.54 µM in assay [3]; 0.243 µM in assay [4]; 0.126 µM in assay [5]; 0.184 µM in assay [6]. Besides, the GI50 was 0.0687 µM in [7], 0.779 µM in assay [8], 0.285 µM in [9] and 0.0888 µM in assay [10]. The TGI in assay [1] is 0.813 µM; in assay [2] it was more than 100 µM; in assay [3], 16.2 µM; in [4] it was 0.605 µM; in assay [5] it was 0.469 µM; in assay [6], 0.52 µM. In addition, the TGI was determined as 0.68 µM in assay [7], 13.8 µM in assay [8], 4.17 µM in [9] and 0.78 µM in assay [10].
